According to patent publication US20090247543A1, “GATIFLOXACIN-CONTAINING AQUEOUS LIQUID PREPARATION” (Kyorin Pharmaceutical Co., Ltd., priority 2008, published 2009):
In brackets after ≈: the same amount, converted by molar mass.

System: Enterococcus faecalis (opthalmologic clinical isolated strain A-2-7)
Assay: Minimal inhibitory concentration used as indicator for T>MIC
Format: cell-based

COc1c(N2CCNC(C)C2)c(F)cc2c(=O)c(C(=O)O)cn(C3CC3)c12 (racemic) [Gatifloxacin, (±)-1-cyclopropyl-6-fluoro-1,4-dihydro-8-methoxy-7-(3-methyl-1-piperazinyl)-4-oxo-3-quinolinecarboxylic acid]
MIC: 0.39 µg/mL (≈ 1.04 µM)
